Measurements reported in patent US8624027B2, “Combination therapy for treating cancer and diagnostic assays for use therein” (AbbVie Inc., priority 2005, dated 2014).

How the values were obtained:
[1] = Pharmacokinetic evaluation in rat; assay type: in vivo; conditions: male, Sprague-Dawley, plasma, single 5 mg/kg oral dose, Table 1, read-out: Pharmacokinetic area under the plasma concentration Curve (rat) AUC0-∞
Outline: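 Male Sprague-Dawley rats (n=3/group) received a single 2 mg/kg IV (jugular slow bolus) or 5 mg/kg oral gavage dose in 10% DMSO/PEG-400; tail-vein plasma sampled to 24 h. Acetonitrile-precipitated plasma quantified by LC-MS/MS (LOQ 0.01 μg/mL); AUC0-∞ by linear trapezoidal rule plus Ct/β extrapolation.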

[2] = system: mantle cell lymphoma; test: Oral efficacy of EXAMPLE 1 in combination therapy, antitumorigenesis on mantle cell lymphoma; assay type: in vivo
[3] = system: B-cell lymphoma; test: Oral efficacy of EXAMPLE 1 in combination therapy, antitumorigenesis on B-cell lymphoma; assay type: in vivo
[4] = system: HCT116 cells; test: Caspase-3 activity in polyploid cells (Caspase-GLO 3/7); assay type: cell-based, human; conditions: cells made polyploid with 200 nM AZD1152 (with or without washout); 1 μM ABT-263 for 4 hours; not in diploid cells
Description: (§1) Cell viability was determined 72 hours post-transfection. The red curve represents a synergistic combination. […] HCT116 cells (FIG. 10C-FIG. 10F) were treated for 24 hours with DMSO or 200 nM AZD1152. AZD1152 was then either left in the culture medium (AZD 1152) or washed out by replacing the medium with drug-free growth medium (AZD 1152 washout).
Caspase-3 activity was determined using the Caspase-GLO 3/7 Assay (Promega) in tandem with the CellTiter-GLO viability assay (Promega). Parallel experiments were performed, where in one experiment Caspase-3/7 activity was measured and in the other, cell viability was determined. As Caspase-3/7 activity on a per cell basis reflects both the specific activity of the Caspase-3 enzyme and the number of viable cells, the data are expressed as Caspase-3/7 activity divided by cell viability.

[5] = system: HCT116 cells; test: Cell viability of polyploid cells after ABT-263; assay type: cell-based, human; conditions: cells made polyploid with 200 nM AZD1152 (with or without washout); 1 μM ABT-263 for 24 hours; not in diploid cells
Description: as §1
Generally, cells were seeded at >90% viability (as determined by trypan blue exclusion) into 96-well plates overnight, treated with compounds or siRNAs for indicated duration, and the overall cell viability was determined by measuring luminescence.

[6] = system: HCT116 tumors; test: HCT116 tumor xenograft in mice; assay type: in vivo
[7] = system: NCI-H146 human small cell lung carcinoma cells; test: Cellular efficacy in human tumor cell line (MTS viability assay); assay type: cell-based; conditions: NCI-H146; 10% human serum, 48 hours; Table 1; read-out: NCI-H146 Cellular Efficacy EC50
Outline: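 Cells plated at 50,000/well in medium with 10% human serum in place of FBS. Treated with 2-fold serial dilutions from 10 μM to 0.020 μM, in duplicate, at least 3 separate runs. Viable cells measured by MTS after 48 h of compound exposure.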

Q: For `CC1(C)CCC(c2ccc(Cl)cc2)=C(CN2CCN(c3ccc(C(=O)NS(=O)(=O)c4ccc(N[C@H](CCN5CCOCC5)CSc5ccccc5)c(S(=O)(=O)C(F)(F)F)c4)cc3)CC2)C1` [Example 1, N-(4-(4-((2-(4-chlorophenyl)-5,5-dimethyl-1-cyclohex-1-en-1-yl)methyl)piperazin-1-yl)benzoyl)-4-(((1R)-3-(morpholin-4-yl)-1-((phenylsulfanyl)methyl)propyl)amino)-3-((trifluoromethyl)sulfonyl)benzenesulfonamide], which AUC(0-inf) [1] is on record?
A: 5.01 µM·h

Q: What about the “efficacy of cytotoxic agents during combination therapy” value ([2]; EXAMPLE 1 orally with rituximab with CHOP, VELCADE) of the same compound?
A: synergistically enhanced efficacy

Q: And the complete tumor regression ([2]; combination of EXAMPLE 1 and bortexomib)?
A: 10%

Q: And the complete tumor regression ([2]; combination of EXAMPLE 1 and rituximab with CHOP)?
A: 90%

Q: And the “efficacy of cytotoxic agents during combination therapy” value ([3]; EXAMPLE 1 orally with etoposide, vincristine, CHOP, rituximab, rapamycin)?
A: synergistically enhanced efficacy

Q: And the complete tumor regression ([3]; combination of EXAMPLE 1 and rapamycin)?
A: 70%

Q: And the complete tumor regression ([3]; combination of EXAMPLE 1 and rituximab)?
A: 70%

Q: And the complete tumor regression ([3]; combination of EXAMPLE 1 and vincristine)?
A: 10%

Q: What about the “Caspase-3 activity in polyploid cells” value [4] of the same compound?
A: induced Caspase-3 activity

Q: What about the “cell viability of polyploid cells” value [5] of the same compound?
A: loss of viability

Q: What about the “time to detection of active BAX conformer in tumors” value ([6]; ABT-263 75 mkd PO in tumors from mice pretreated 3 days with AZD1152, not in naive tumors) of the same compound?
A: ≤ 4 h

Q: What about the “persistence of tumor regression, combination regimen of AZD1152/ABT-263” value ([6]; HCT116 colon carcinoma model) of the same compound?
A: at least 2 weeks

Q: And the “antitumor efficacy, combination regimen of AZD1152/ABT-263” value ([6]; HCT116 colon carcinoma model, tumors ~0.5 gram)?
A: rapid and more sustained tumor regression

Q: And the EC50 [7]?
A: 89.1 nM
